Measurements reported in US9410128B2, “Method and compounds for generation of iPSCs” (Sanford-Burnham Medical Research Institute, priority 2011, dated 2016).

Assays:
Format in all cases: cell-based, mouse
Oct4-EGFP MEFs [1] = experiment: OSK (without c-Myc) reprogramming of Oct4-EGFP MEFs, GFP+ colony count
Description: (§1) Oct4-EGFP MEFs were derived from the mouse strain B6; 129S4-Pou5f1^tm2(EGFP)Jae/J (The Jackson Laboratory, Bar Harbor, Me., USA, on the world wide web at jax.org/; stock #008214) following the protocol on the WiCell Research Institute, Madison, Wis., USA, on the world wide web at wicell.org/website. In brief, embryonic day 13.5 (E13.5) embryos were collected from timemated pregnant female mice and then tested for microbial contamination. Oct4-EGFP MEFs were maintained in MEF complete medium (Dulbecco's modified Eagle's medium [For DMEM or culture medium & materials: Gibco Cell Culture, Carlsbad, Calif., USA, on the world wide web at invitrogen.com/gibco] with 10% fetal bovine serum (FBS), nonessential amino acids, L-glutamine, and no sodium pyruvate). Cells passaged fewer than five times were used for induced reprogramming.
Reprogramming was conducted as described in Takahashi et al. (Cell 126: 663-676 (2006)). In brief, 4×10^4 Oct4-EGFP MEF were transduced with pMX retroviruses for ectopic expression of Oct4, Sox2, Klf4, and c-Myc (Addgene). […] Reprogrammed (EGFP+) cells were identified and scored by fluorescence microscopy two to three weeks post transduction, unless otherwise stated. […]

Oct4-EGFP MEFs [2] = experiment: OSKM-induced reprogramming of Oct4-EGFP MEFs to iPS cells, GFP+ colony count
Description: as §1
Reprogramming was conducted as described in Takahashi et al. (Cell 126: 663-676 (2006)). In brief, 4×10^4 Oct4-EGFP MEF were transduced with pMX retroviruses for ectopic expression of Oct4, Sox2, Klf4, and c-Myc (Addgene). Three days later, cells were fed ES medium (DMEM with 15% ES-screened FBS, nonessential amino acids, L-glutamine, monothioglycerol, and 1000 U/ml leukemia inhibitory factor (LIF)) and the media was changed every other day. Reprogrammed (EGFP+) cells were identified and scored by fluorescence microscopy two to three weeks post transduction, unless otherwise stated. To derive iPSCs, EGFP+ colonies were manually picked under a stereomicroscope (Leica Microsystems). In the case of small molecule treatment, indicated small molecules were applied to reprogramming cells on day four post-transduction and fresh medium was added every other day for at least two weeks or until EGFP+ colonies appeared.
For reprogramming, retrovirus expressing reprogramming factors (Oct4, Sox2, Klf4, and c-Myc) were added and the medium was then changed to complete medium next day. For overexpression of COX2 transgene, retroviruses expressing COX2 were added 1 day after OSKM transduction. siRNAs were introduced at day 5 post-transduction.

Oct4-EGFP MEFs [3] = experiment: Alkaline phosphatase (AP)+ colony formation during reprogramming; conditions: molecules applied during reprogramming; data not shown
Method: iPS cells were seeded and cultured on 0.1% gelatin-coated 6-well plates. Four days later, cells were fixed with 4% paraformadehyde (Electron Microscopy Sciences; Cat#15710-S). For immunofluorescence, fixed cells were permeabilized with 0.1% Triton X-100 in PBS and blocked with 5% BSA in PBS. SSEA-1 (R&D; Cat#MAB2155), Sox2 (R&D; Cat#MAB2018), and Nanog (R&D; Cat#AF2729) antibodies were used to detect ES markers. Nuclei were visualized by Hoechst 33342 (Invitrogen) staining. For AP staining, fixed cells were treated with alkaline phosphatase substrate following the manufacturer's instruction (Vector Laboratories; Cat#SK-5100).
All 17 molecules were tested by examining alkaline phosphatase (AP)+ colony formation during reprogramming while these molecules were applied. […] To that end, 6 molecules were picked including nabumetone, 4-hydroxytamoxifen (OHTM), corynanthine, moclobemide, NiSO4, and lectin—for further analysis (FIG. 2A). To evaluate their effect on induction of mature GFP+ iPS cells, OSKM-transduced Oct4-EGFP MEFs were treated four days after transduction with each of these factors separately.

Oct4-EGFP MEFs [4] = experiment: OKM (without Sox2) reprogramming of Oct4-EGFP MEFs, GFP+ colony count
Method: Oct4-EGFP MEFs were derived from the mouse strain B6; 129S4-Pou5f1^tm2(EGFP)Jae/J (The Jackson Laboratory, Bar Harbor, Me., USA, on the world wide web at jax.org/; stock #008214) following the protocol on the WiCell Research Institute, Madison, Wis., USA, on the world wide web at wicell.org/website. In brief, embryonic day 13.5 (E13.5) embryos were collected from timemated pregnant female mice and then tested for microbial contamination. […]
Reprogramming was conducted as described in Takahashi et al. (Cell 126: 663-676 (2006)). […] Reprogrammed (EGFP+) cells were identified and scored by fluorescence microscopy two to three weeks post transduction, unless otherwise stated. […]
Oct4-EGFP MEFs were transduced with OKM and treated with pool of 6 molecules, including NiSO4, nabumetone, OHTM, moclobemide, lectin, and corynanthine, at day 4 for at least 10 days. GFP+ colonies were identified and counted as described in FIG. 1 at day 14. […]
Oct4-EGFP MEFs were transduced with OKM and four days later treated with 1.25 uM OHTM at least 10 days. GFP+ colonies were counted as described in FIG. 1 at day 15˜21. […]
Oct4-EGFP MEFs were transduced with OKM and four days later treated with 2.18 uM nabumetone (Nabu) for at least 10 days. GFP+ colonies were counted as described in FIG. 1 at day 17˜21. […]

Sox2 = experiment: Endogenous Sox2 mRNA expression by real time qRT-PCR in OKM-transduced Oct4-EGFP MEFs; conditions: OKM-transduced cells, compared with OKM+DMSO (FIG. 3E)
Description: To understand the molecular mechanism underlying OHTM's effect on reprogramming, the question of whether OHTM induces endogenous Sox2 expression was posed. To do so, OHTM or control DMSO was applied to Oct4-EGFP MEF four days after transduction with OKM. Cells were harvested at indicated time points for total RNA isolation and real time qRT-PCR analysis (FIG. 3E). […] However, the direct targets of OHTM to affect Sox2 expression were not clear.
Oct4-EGFP MEFs were transduced with OKM and treated with OHTM four days later. Cells were harvested at indicated days (D) for real time RT-PCR analysis. β actin expression serves as an internal control. Error bars represent standard deviation of 2˜3 independent experiments. * p value <0.05.

COc1ccc2cc(CCC(C)=O)ccc2c1 [Nabumetone]
enhancement of reprogramming by OSK (Oct4-EGFP MEFs [1]; OSK without c-Myc, treated four days after transduction, day 21, compared with OSK+DMSO (FIG. 3A)): ~2.5 fold
enhancement of reprogramming efficiency (Oct4-EGFP MEFs [2]; in the presence of control siRNA (siNT), compared with DMSO treatment, day 12~14 (FIG. 2C)): more than 6 fold
increase in number of reprogrammed (GFP+) colonies (Oct4-EGFP MEFs [2]; treated four days after transduction, compared with DMSO controls (FIG. 2B)): at least 2.8 fold
effect on AP+ colony formation (Oct4-EGFP MEFs [3]): not showing adverse effect
effect on OKM-induced reprogramming (Oct4-EGFP MEFs [4]; 2.18 uM, day 17~21 (FIG. 3D)): significantly improved

COC(=O)[C@H]1[C@H]2C[C@H]3c4[nH]c5ccccc5c4CCN3C[C@@H]2CC[C@@H]1O.Cl [Corynanthine hydrochloride]
effect on AP+ colony formation (Oct4-EGFP MEFs [3]): not showing adverse effect

4-hydroxytamoxifen [4-hydroxytamoxifen (OHTM)]
effect on AP+ colony formation (Oct4-EGFP MEFs [3]): not showing adverse effect
effect on OKM-induced reprogramming (Oct4-EGFP MEFs [4]; 1.25 uM, day 15~21, vs OKM+DMSO (FIG. 3C)): significantly improved
induction of endogenous Sox2 mRNA (Sox2; day 12): 220%
induction of endogenous Sox2 mRNA (Sox2; day 16): 400%

O=C(NCCN1CCOCC1)c1ccc(Cl)cc1 [Moclobemide]
effect on AP+ colony formation (Oct4-EGFP MEFs [3]): not showing adverse effect

COc1ccc2c(c1)c(CC(=O)O)c(C)n2C(=O)c1ccc(Cl)cc1 [indomethacin]
effect on iPSC generation (EGFP+ colony number) (Oct4-EGFP MEFs [1]; OSK, applied day 4~5 post transduction, scored two weeks post transduction (FIG. 6B)): no effect
effect on iPSC generation (EGFP+ colony number) (Oct4-EGFP MEFs [2]; applied day 4~5 post transduction, scored two weeks post transduction (FIG. 6A)): no effect
